The record followed here is US20080287525A1, “Pharmaceuticals for treating or preventing oral diseases” (HAWLEY & HAZEL (BVI) COMPANY LIMITED, priority 2007, published 2008).

The test system of one test is TNF-α. As to the kind of experiment: Anti-inflammatory test in KB cells, LUMINEX, TNF-α. The format is cell-based, human. As to conditions: KB cell supernatant, the larger the value, the stronger the anti-inflammatory ability. How it is done:
(§1) Anti-inflammatory activity was assessed using the KB cell (the epidermis cancer cell in human oral cavity). During the experiment, the KB cell inoculated in the cultivating plate was treated with or without positive control or Mulberrofuran G. After the treatment, the supernatant of the cultivating medium was collected and stored in −80° C. refrigerator. Inflammation was assessed by measuring several inflammation markers: Prostaglandin E2 (PGE2) in the supernatant was detected by Enzyme-linked immunsorbent assay, and LUMINEX™ multifunctional liquid-phase chip analysis system was used for the detection of granulocyte monocyte colony stimulating factor (GM-CSF), tumor necrosis factor-alpha (TNF-α), and interleukins 1-beta and 6 ([…] and IL-6).
(§2) LUMINEX™ multifunctional liquid-phase chip analyses of GM-CSF, TNF-α, IL-1 and IL-6: The 96-well plate was enclosed with enclosing liquid for 30 minutes. Fluorescent microspheres were added into the 96-well plate after dilution. The standard and the samples to be measured were added, and incubated overnight at 4° C. The next day, the supernatant was discarded and 50 μL GM-CSF, TNF-α, IL-1β and IL-6 antibodies were added to each well. After being rinsed for 4 times, the 96-well plate was placed in a shaking table, which was in ambient temperature, to keep the plate away from light for one hour. […]

Another test deals with IL-1β. Kind of test: Anti-inflammatory test in KB cells, LUMINEX, IL-1β. The class given is cell-based, human. As to conditions: KB cell supernatant, the larger the value, the stronger the anti-inflammatory ability. How it is done:
as §1, §2

The subject of a further test is IL-6. As to the kind of experiment: Anti-inflammatory test in KB cells, LUMINEX, IL-6. The format is cell-based, human. As to conditions: KB cell supernatant, the larger the value, the stronger the anti-inflammatory ability. The protocol: as §1, §2
In a further test the test system is GM-CSF. As to the kind of experiment: Anti-inflammatory test in KB cells, LUMINEX, GM-CSF. The format is cell-based, human. As to conditions: KB cell supernatant, the larger the value, the stronger the anti-inflammatory ability. The protocol: as §1, §2
Test [1] deals with Actinomyces naeslundii (A. n) ATCC 12104. Kind of test: Micro-dilution MIC test, A. n. The class given is cell-based. As to conditions: 37 °C, 18-24 h, unit not given, method gives concentrations in mg/L (ppm). The protocol:
(§3) A single colony was picked from the Trypticase Digested Soybean peptone agar blood plate (TSA5B) of ordinarily stored bacteria species and used to inoculate corresponding broth culture medium, which was cultivated in a microaerobic environment (P.g needs anaerobic cultivation) with 95% air, 5% CO2 at 37.0° C.±1.0° C., wherein S.m and S.sa were cultivated for 18-24 h, and the remaining five species were cultivated for 40-48 h. Then corresponding broth cultivate medium was used to adjust the turbidity of the bacteria suspension to 0.5 McFarland standard, equivalent to 1.0×10^8 CFU/mL.
(§4) The operating steps were:
(§5) a. Preparation of the stock solution of antibacterial pharmaceutical: 1% stock solution of various antibacterial pharmaceuticals was prepared with 100% pure ethanol as solvent. The prepared stock solution was filtered to eliminate bacteria, and was distributed into small portions to be used.
(§6) b. Range of measured concentration: the present experiment used 250 ppm as the ceiling measured concentration of the anti-bacterial pharmaceutical.
(§7) c. Measuring method: micro-dilution method. […]
(§8) The bacteria to be tested and standard bacteria were prepared using the same method as above. […] 0.12 mg/L, and the final inoculation quantity was about […] or 5×10^6 bacteria in each well. […]
A general note: In broth dilution the organism is exposed to a series of concentrations in liquid medium.

Test [2] concerns Streptococcus sanguis (S. sa) ATCC 10556. As to the kind of experiment: Micro-dilution MIC test, S. sa. The format is cell-based. The following applies: 37 °C, 18-24 h, unit not given, method gives concentrations in mg/L (ppm). How it is done:
as §3, §4, §5, §6, §7, §8

Test [3] concerns Fusobacterium nucleatum subsp. Polymorphum (F. n) ATCC 10953. As to the kind of experiment: Micro-dilution MIC test, F. n. The class given is cell-based. The following applies: 37 °C, 18-24 h, unit not given, method gives concentrations in mg/L (ppm). The protocol:
as §3, §4, §5, §6, §7, §8

For test [4], the system named is Actinomyces viscosus (A. v) ATCC 27044. As to the kind of experiment: Micro-dilution MIC test, A. v. The class given is cell-based. The following applies: 37 °C, 18-24 h, unit not given, method gives concentrations in mg/L (ppm). The protocol: as §3, §4, §5, §6, §7, §8
Test [5] relates to Actinobacilus actinomycetemcomitans (A. a) ATCC 43717. As to the kind of experiment: Micro-dilution MIC test, A. a. The following applies: 37 °C, 18-24 h, unit not given, method gives concentrations in mg/L (ppm). The format is cell-based. The protocol: as §3, §4, §5, §6, §7, §8
Test [6] concerns Porphyromonas gingivalis (P. g) ATCC 33277. Kind of test: Micro-dilution MIC test, P. g. The format is cell-based. The following applies: anaerobic, 37 °C, 18-24 h, unit not given, method gives concentrations in mg/L (ppm). How it is done: as §3, §4, §5, §6, §7, §8
For test [7], the system named is Streptococcus mutans (S. m) ATCC 25175. As to the kind of experiment: Micro-dilution MIC test, S. m. The class given is cell-based. The following applies: 37 °C, 18-24 h, unit not given, method gives concentrations in mg/L (ppm). The protocol:
as §3, §4, §5, §6, §7, §8

`Oc1cc(Cl)ccc1Oc1ccc(Cl)cc1Cl` [Triclosan, reference compound]: in the test on TNF-α, the “anti-inflammatory effect, TNF-α” value worked out at 81%. Also, the “anti-inflammatory effect, IL-1β” value with IL-1β came to 7%. Moreover, the “anti-inflammatory effect, IL-6” value in the test on IL-6 was 31%.
Consider `CC1=C[C@H]2c3c(O)cc(-c4cc5ccc(O)cc5o4)cc3O[C@@]3(c4ccc(O)cc4O)Oc4cc(O)ccc4[C@H](C1)[C@@H]23` [Mulberrofuran G, 3aH-Benzo[3,4][2]benzopyrano[1,8-bc][1]-benzopyran-4,11-diol, 8a-(2,4-dihydroxphenyl)-1,8a,13b,13c-tetrahydro-6-(6-hydroxy-2-benzofuranyl)-2-methyl-, (3a,S,8aS,13bS,13cR)-], for which the “anti-inflammatory effect, TNF-α” value with TNF-α is 90%. In addition, in the test with IL-1β, the “anti-inflammatory effect, IL-1β” value amounted to 18%. Also, the “anti-inflammatory effect, GM-CSF” value in the test on GM-CSF is recorded as 8%. For the same molecule, the “MIC, A. n ATCC 12104” value in test [1] was determined as 1.9. In test [2], the “MIC, S. sa ATCC 10556” value is reported as 7.8. The “MIC, F. n ATCC 10953” value in test [3] came to 7.8. For the same molecule, the “MIC, A. v ATCC 27044” value in test [4] is 2.4. Moreover, the “anti-inflammatory effect, IL-6” value in the test on IL-6 was 48%. The “MIC, A. a ATCC 43717” value in test [5] stood at 2.4. Besides, in test [6], the “MIC, P. g ATCC 33277” value is 1.9. Further, the “MIC, S. m ATCC 25175” value in test [7] amounted to 3.9.
